Results from ChEMBL document CHEMBL1143107 (Bioorg Med Chem, 2008).

Columns and labels:
[1] = target: T1, Prostaglandin G/H synthase 2 (Homo sapiens, UniProt P35354)
T1 sequence (P35354 whole entry): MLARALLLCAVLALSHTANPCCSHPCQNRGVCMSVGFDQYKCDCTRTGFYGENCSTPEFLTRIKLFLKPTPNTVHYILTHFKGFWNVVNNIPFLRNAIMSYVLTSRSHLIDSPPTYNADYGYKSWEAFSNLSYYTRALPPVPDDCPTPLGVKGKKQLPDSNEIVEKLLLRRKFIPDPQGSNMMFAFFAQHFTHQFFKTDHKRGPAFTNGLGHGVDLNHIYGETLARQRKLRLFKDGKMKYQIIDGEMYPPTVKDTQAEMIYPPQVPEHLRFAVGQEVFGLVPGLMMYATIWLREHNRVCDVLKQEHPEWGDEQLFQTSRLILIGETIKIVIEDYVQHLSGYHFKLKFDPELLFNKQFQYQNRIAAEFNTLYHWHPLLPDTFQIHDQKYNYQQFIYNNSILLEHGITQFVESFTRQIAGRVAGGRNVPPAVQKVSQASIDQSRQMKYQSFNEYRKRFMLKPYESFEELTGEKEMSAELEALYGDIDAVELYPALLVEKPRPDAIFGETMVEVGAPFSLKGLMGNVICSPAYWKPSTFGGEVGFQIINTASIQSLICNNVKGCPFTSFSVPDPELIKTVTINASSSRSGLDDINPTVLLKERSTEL
Description: Inhibition of human COX2 in human whole blood

[2] = target: T1, Prostaglandin G/H synthase 2; remark: listed apart in the source
Homo sapiens [3] = species on record: Homo sapiens; assay: Ratio of IC50 for human COX1 to IC50 for human COX2 in human whole blood; type: tissue-based
Homo sapiens [4] = species on record: Homo sapiens; assay: Ratio of IC50 for human COX1 to IC50 for human COX2

IC50 [1] [nM] | IC50 [2] [nM] | Ratio IC50 (Homo sapiens [4]) | SMILES | Ratio IC50 (Homo sapiens [3])
77.2 | – | – | CS(=O)(=O)c1ccc(-c2nc(NCc3ccc(F)cc3)cc(C(F)(F)F)n2)cc1 | 1300
> 10000 | – | – | CC(C)c1ccc(CNc2cc(C(F)(F)F)nc(-c3ccc(S(C)(=O)=O)cc3)n2)cc1 | > 1
> 10000 | – | – | CS(=O)(=O)c1ccc(-c2nc([S+]([O-])Cc3ccccc3)cc(C(F)(F)F)n2)cc1 (stereo not drawn) | > 1
> 10000 | > 10000 | > 1 | CS(=O)(=O)c1ccc(-c2nc(NCc3ccccn3)cc(C(F)(F)F)n2)cc1 | > 1
803 | 712 | > 140 | NS(=O)(=O)c1ccc(-c2nc(NCC3CCCCC3)cc(C(F)(F)F)n2)cc1 | > 124
> 10000 | – | – | CS(=O)(=O)c1ccc(-c2nc(Nc3ccccc3)cc(C(F)(F)F)n2)cc1 | > 1
300 | – | – | CS(=O)(=O)c1ccc(-c2nc(NCc3cc(F)cc(F)c3)cc(C(F)(F)F)n2)cc1 | > 333
274 | – | – | CC(C)Nc1cc(NCc2ccccc2)nc(-c2ccc(S(C)(=O)=O)cc2)n1 | > 365
> 10000 | 3000 | > 33 | NS(=O)(=O)c1ccc(-c2nc(NCc3ccccn3)cc(C(F)(F)F)n2)cc1 | > 10
> 10000 | – | – | CS(=O)(=O)Oc1ccc(CNc2cc(C(F)(F)F)nc(-c3ccc(S(C)(=O)=O)cc3)n2)cc1 | > 1
> 10000 | 10000 | > 1 | CS(=O)(=O)c1ccc(-c2nc(NCc3csc4ccccc34)cc(C(F)(F)F)n2)cc1 | > 1
> 10000 | > 10000 | > 1 | NS(=O)(=O)c1ccc(-c2nc(NCc3cccnc3)cc(C(F)(F)F)n2)cc1 | > 1
44.4 | – | – | Cc1ccc(CNc2cc(Cl)nc(-c3ccc(S(C)(=O)=O)cc3)n2)cc1 | > 2250
528 | – | – | Cc1ccsc1CNc1cc(C(F)(F)F)nc(-c2ccc(S(C)(=O)=O)cc2)n1 | 189
3330 | 1890 | > 52 | NS(=O)(=O)c1ccc(-c2nc(NCc3ccncc3)cc(C(F)(F)F)n2)cc1 | > 3
18 | – | – | Cc1c(NCc2ccccc2)nc(-c2ccc(S(C)(=O)=O)cc2)nc1C(F)(F)F | > 556
> 10000 | – | – | CC(C)c1ccc(Nc2cc(C(F)(F)F)nc(-c3ccc(S(C)(=O)=O)cc3)n2)cc1 | > 1
5.1 | – | – | COc1cc(NCc2ccccc2)nc(-c2ccc(S(C)(=O)=O)cc2)n1 | > 19600
48.4 | – | – | Cc1ccc(CNc2cc(C(F)(F)F)nc(-c3ccc(S(C)(=O)=O)cc3)n2)cc1 | > 2060
10.3 | – | – | CC(C)Nc1cc(NCc2cccs2)nc(-c2ccc(S(C)(=O)=O)cc2)n1 | > 9720
> 10000 | – | – | CS(=O)(=O)c1ccc(-c2nc(NCc3ccc(OC(F)(F)F)cc3)cc(C(F)(F)F)n2)cc1 | > 1
3980 | – | – | Cn1cccc1CCNc1cc(C(F)(F)F)nc(-c2ccc(S(C)(=O)=O)cc2)n1 | > 25
36.7 | – | – | Cc1ccc(CNc2nc(-c3ccc(S(C)(=O)=O)cc3)nc(Cl)c2C)cc1 | > 2730
11.7 | – | – | Cc1ccc(CNc2cc(C(F)(F)F)nc(-c3ccc(S(C)(=O)=O)cc3)n2)s1 | > 852
> 10000 | – | – | CS(=O)(=O)c1ccc(-c2nccc(NCc3ccccc3)n2)cc1 | > 1
522 | – | – | CC(Nc1cc(C(F)(F)F)nc(-c2ccc(S(C)(=O)=O)cc2)n1)c1ccccc1 (stereo not drawn) | 74

Continued, molecule first:

SMILES | IC50 [1] [nM] | IC50 [2] [nM] | Ratio IC50 (Homo sapiens [4]) | Ratio IC50 (Homo sapiens [3])
CS(=O)(=O)c1ccc(-c2nc(NC3CCCC3)cc(C(F)(F)F)n2)cc1 | 476 | 192 | > 522 | 80
CCN(Cc1ccccc1)c1cc(C(F)(F)F)nc(-c2ccc(S(C)(=O)=O)cc2)n1 | > 10000 | – | – | > 1
CN(Cc1ccccc1)c1cc(C(F)(F)F)nc(-c2ccc(S(C)(=O)=O)cc2)n1 | – | – | – | 22
CCS(=O)(=O)c1cc(NCc2cccs2)nc(-c2ccc(S(C)(=O)=O)cc2)n1 | 144 | – | – | 15
CS(=O)(=O)c1ccc(-c2nc(NCC3CC=CCC3)cc(C(F)(F)F)n2)cc1 (stereo not drawn) | 32.9 | 43.1 | > 2320 | > 304
CS(=O)(=O)c1ccc(-c2nc(NCc3ccc(O)cc3)cc(C(F)(F)F)n2)cc1 | – | – | – | > 158
NS(=O)(=O)c1ccc(-c2nc(NCc3cc4ccccc4s3)cc(C(F)(F)F)n2)cc1 | 140 | 15.2 | 6570 | > 71
COCOc1ccc(CNc2cc(C(F)(F)F)nc(-c3ccc(S(C)(=O)=O)cc3)n2)cc1 | > 10000 | – | – | > 1
CS(=O)(=O)c1ccc(-c2nc(SCc3cccs3)cc(C(F)(F)F)n2)cc1 | 4.1 | – | – | > 24400
CS(=O)(=O)c1ccc(-c2nc(NC3CCCCC3)cc(C(F)(F)F)n2)cc1 | 238 | 253 | – | –
CC(C)(C)c1cc(NCc2ccccc2)nc(-c2ccc(S(C)(=O)=O)cc2)n1 | – | – | – | 1060
CCc1c(NCc2ccc(F)cc2)nc(-c2ccc(S(C)(=O)=O)cc2)nc1C(F)(F)F | – | – | – | > 972
CS(=O)(=O)c1ccc(-c2nc(NCc3ccco3)cc(C(F)(F)F)n2)cc1 | 140 | 201 | > 498 | > 497
CS(=O)(=O)c1ccc(-c2nc(O)cc(NCc3cccs3)n2)cc1 | – | – | – | > 1260
CS(=O)(=O)c1ccc(-c2nc(Cl)cc(NCc3cccs3)n2)cc1 | – | – | – | > 81300
Cc1c(Cl)nc(-c2ccc(S(C)(=O)=O)cc2)nc1NCc1ccc(F)cc1 | – | – | – | > 145
Cn1cccc1CNc1cc(C(F)(F)F)nc(-c2ccc(S(C)(=O)=O)cc2)n1 | 28.8 | 178 | > 562 | > 3470
CS(=O)(=O)c1ccc(-c2nc(NCc3cc4ccccc4s3)cc(C(F)(F)F)n2)cc1 | 293 | 5.92 | – | –
CS(=O)(=O)c1ccc(-c2nc(Cl)cc(NCc3ccccc3)n2)cc1 | – | – | – | > 9120
CC(C)c1cc(NCc2ccccc2)nc(-c2ccc(S(C)(=O)=O)cc2)n1 | – | – | – | > 396
CS(=O)(=O)c1ccc(-c2nc(NCC3CCCC3)cc(C(F)(F)F)n2)cc1 | > 10000 | > 10000 | > 1 | > 1
Cc1c(NCc2cccs2)nc(-c2ccc(S(C)(=O)=O)cc2)nc1C(F)(F)F | 38.2 | – | – | > 78

SMILES | IC50 [1] [nM] | IC50 [2] [nM] | Ratio IC50 (Homo sapiens [4]) | Ratio IC50 (Homo sapiens [3])
NS(=O)(=O)c1ccc(-c2nc(NCc3csc4ccccc34)cc(C(F)(F)F)n2)cc1 | > 10000 | 10000 | > 10 | > 1
CCc1c(NCc2cccs2)nc(-c2ccc(S(C)(=O)=O)cc2)nc1C(F)(F)F | 121 | – | – | > 83
Cc1ccccc1CNc1cc(C(F)(F)F)nc(-c2ccc(S(C)(=O)=O)cc2)n1 | – | – | – | > 17
CS(=O)(=O)c1ccc(-c2nc(NCc3ccc(C(F)(F)F)cc3)cc(C(F)(F)F)n2)cc1 | – | – | – | > 52
Cc1cccc(CNc2cc(C(F)(F)F)nc(-c3ccc(S(C)(=O)=O)cc3)n2)c1 | – | – | – | > 52
COc1ccc(CNc2cc(C(F)(F)F)nc(-c3ccc(S(C)(=O)=O)cc3)n2)cc1 | 272 | – | – | > 367
NS(=O)(=O)c1ccc(-c2nc(NCc3ccco3)cc(C(F)(F)F)n2)cc1 | 2790 | 14.4 | > 6920 | > 3
CS(=O)(=O)c1ccc(-c2nc(O)cc(NCc3ccccc3)n2)cc1 | – | – | – | > 2030
CS(=O)(=O)c1ccc(-c2nc(NCCc3cccs3)cc(C(F)(F)F)n2)cc1 | – | – | – | > 83
CCS(=O)(=O)c1cc(NCc2ccccc2)nc(-c2ccc(S(C)(=O)=O)cc2)n1 | 90.7 | – | – | > 110
CS(=O)(=O)c1ccc(-c2nc(Cl)cc(NCc3ccc(F)cc3)n2)cc1 | – | – | – | 2970
CS(=O)(=O)c1ccc(-c2nc(NCc3ccc(N)cc3)cc(C(F)(F)F)n2)cc1 | – | – | – | 473
CS(=O)(=O)c1ccc(-c2nc(SCc3ccccc3)cc(C(F)(F)F)n2)cc1 | 528 | – | – | > 189
CC[S+]([O-])c1cc(NCc2cccs2)nc(-c2ccc(S(C)(=O)=O)cc2)n1 (stereo not drawn) | – | – | – | > 266
COc1cc(NCc2cccs2)nc(-c2ccc(S(C)(=O)=O)cc2)n1 | – | – | – | > 22000
Cc1c(NCc2ccc(F)cc2)nc(-c2ccc(S(C)(=O)=O)cc2)nc1C(F)(F)F | 22.4 | – | – | > 447
CS(=O)(=O)c1ccc(-c2nc(NCC3CCCCC3)cc(C(F)(F)F)n2)cc1 | – | – | > 3610 | > 68
CCSc1cc(NCc2ccccc2)nc(-c2ccc(S(C)(=O)=O)cc2)n1 | 24.1 | – | – | 414
CS(=O)(=O)c1ccc(-c2nccc(NCc3cccs3)n2)cc1 | 9.2 | – | – | > 10900
CS(=O)(=O)c1ccc(-c2nc(C(F)(F)F)cc(S(=O)(=O)Cc3ccccc3)n2)cc1 | > 10000 | – | – | > 1
CCSc1cc(NCc2cccs2)nc(-c2ccc(S(C)(=O)=O)cc2)n1 | 1.2 | – | – | > 8400
